Laboratory results reported in patent EP0280873A1, “Piperidines, medicines containing them and process for their preparation” (Dr. Karl Thomae GmbH, priority 1987, dated 1988).
Where a name gives a salt, the structure may show the parent alone. Read-outs that look alike come from different tables or passages of the source.

Key:
[1] = test system: mit Reserpin behandelten Maus; assay: Anti-Parkinson effect: induction of motility in mice treated with reserpine 24 h earlier; format: in vivo; details: 2 mg/kg s.c., measured 20 min later, group of 6 mice, x ± sx; saline controls ca. 5
Experimental: 3. Bestimmung der Anti-Parkinson-Wirkung nach der Methode von Hinzen D. et al., European Journal of Pharmacology 131, 75-88 (1986):
a) Motilitätsauslösung an der 24 Stunden zuvor mit Reserpin behandelten Maus:
Mäuse werden 24 Stunden vor dem Experiment mit 5 mg/kg Reserpin i.p. behandelt; die Tiere werden bei 25-30°C gehalten und 3 × mit 2 ml einer 5%igen Glucose-lösung in Tyrode s.c. behandelt. Gruppen zu je 6 Tieren erhalten die Testsubstanz mit 2 mg/kg s.c. injiziert. 20 Minuten später werden die Tiere zur Aktivitätsmessung in Beobachtungskäfige gesetzt, die mit einer Infrarotlichtschranke ausgerüstet sind. Meß-wert ist die Häufigkeit des Passierens des Infrarotstrahles durch eine Gruppe von 6 Mäusen in 5 Minuten ("Laufimpulse/5 Minuten").
Pro Substanz werden 6 Gruppen geprüft. Kontrolltiere erhalten isotone Kochsalzlösung s.c..
Als Ergebnis werden die mit der Testsubstanz erzielten Laufimpulse/5 Minuten dargestellt (x ± sx) Kontrolltiere (Kochsalzlösung) zeigen minimale Aktivität (ca. 5 Laufimpulse/5 Minuten).

MPTP-Affen = assay: Anti-Parkinson effect: abolition of Parkinson symptoms in the MPTP monkey; format: in vivo, Rhesusaffen; details: for Dauer (Wirkungsdauer): at the minimal dose; for minimal effective dose: Macaca mulatta, im, read-out: Dosis (Mindestdosen, die zur Aufhebung der Parkinsonsymptomatik führen)
From the text: b) Aufhebung der Parkinsonsymptome am MPTP-Affen nach der modifizierten Methode von Burns, R.S. und Chuang, C.: Proc. Natl. Acad. Sci. 80, 4546-4550 (1983):
Das durch das Neurotoxin 1-Methyl-4-phenyl-1,2,3,6-tetrahydro-pyridin (MPTP) beim Menschen und beim Affen ausgelöste, irreversible neurologische Krankheitsbild ähnelt in seiner klinischen, pathologischen, biochemischen und pharmakologischen Ausprägung weitgehend der idiopathischen Parkinson'schen Erkrankung (Markey et al., Nature 311, 464 (1984)). Ursache dieser überzeugenden Übereinstimmung ist die Tatsache, daß MPTP selektiv jene dopaminergen Nervenzellen in der Substantia nigra des Gehirns zerstört, welche auch bei der natürlich auftretenden Parkinson'schen Erkrankung durch degenerative Prozesse zerstört werden. Es wird diskutiert, daß auch die Ursache der idiopathischen Parkinson'schen Erkrankung im Organismus entstehendes MPTP oder eine ähnliche chemische Verbindung ist (Snyder, S.H., Nature 311, 514 (1984)). Möglicherweise bedingt durch den spezifischen Metabolismus des MPTP ist die klinische Ausprägung des MPTP-Parkinson'bildes bisher außer beim Menschen nur beim Affen nachweisbar.
Das an Rhesusaffen verwirklichte MPTP-Modell ist daher in hervorragendem Maße geeignet, die Wirkung von Anti-Parkinson-Medikamenten zu prüfen. Insgesamt 7 Rhesusaffen waren an dem Versuch beteiligt. Sie hatten über mehrere Tage verteilt, kumulative Dosen von 2,4-6,25 mg/kg MPTP erhalten, bis stabile und irreversible Parkinson-Symptome aufgetreten waren. Im Vordergrund der Symptomatik stand die Bradykinesie, die alle Tiere zeigten, teilweise sogar bis hin zur Akinesie. Kein Tier war in der Lage, spontan Wasser oder Futter aufzunehmen. Die Reaktivität war stark vermindert, meist verharrten die Tiere in einer typischen Beugehaltung. Tremor wurde gelegentlich gesehen. Die Extremitäten wiesen einen Rigor auf. Bei dem Versuch einer Willkür-Motorik traten häufig klonische Krämpfe auf.
Die nachfolgenden Verbindungen wurden jeweils an 2-3 der so vorbehandelten Tiere getestet. Bei intramuskulärer Gabe wurden nach etwa 5 bis 10 Minuten erste koordinierte Willkürbewegungen möglich, die in den folgenden 10 bis 30 Minuten von einer allmählichen, weitestgehenden Normalisierung der Motorik gefolgt waren. Die Tiere waren in der Lage, Nahrung aufzunehmen. Sie verhielten sich innerhalb ihrer Käfige regelgerecht, dies galt auch hinsichtlich Vigilanz und artspezifischen Verhaltens. Als Restsymptomatik wurde gelegentlich leichter Ruhetremor registriert.
Sobald die Wirkung der Verbindungen nachließ, verfielen die Tiere wieder in die oben beschriebene Parkinson-Symptomatik; eine erneute Applikation der Verbindungen führte wieder zur Besserung bzw. weitgehenden Aufhebung der klinischen Erscheinungen.
Nebenwirkungen traten in den bisher angewandten Dosierungen nicht in Erscheinung.
In der nachfolgenden Tabelle werden sowohl die Mindestdosen, die zur Aufhebung der Parkinsonsymptomatik führen, angegeben, als auch die Wirkungsdauer.

Dopamin (D₂)-Rezeptor = target: T1, Dopamin (D₂)-Rezeptor (Rattus norvegicus, UniProt P61169); assay: Dopamine (D2) receptor binding affinity, 3H-spiroperidol displacement in rat striatal homogenate; parameters: species or system Ratten
T1 construct: Die Striata werden herauspräpariert und in 25 ml eiskaltem Puffer; from tissue; host or cells: rat striatum membrane homogenate
T1 sequence (P61169 whole entry): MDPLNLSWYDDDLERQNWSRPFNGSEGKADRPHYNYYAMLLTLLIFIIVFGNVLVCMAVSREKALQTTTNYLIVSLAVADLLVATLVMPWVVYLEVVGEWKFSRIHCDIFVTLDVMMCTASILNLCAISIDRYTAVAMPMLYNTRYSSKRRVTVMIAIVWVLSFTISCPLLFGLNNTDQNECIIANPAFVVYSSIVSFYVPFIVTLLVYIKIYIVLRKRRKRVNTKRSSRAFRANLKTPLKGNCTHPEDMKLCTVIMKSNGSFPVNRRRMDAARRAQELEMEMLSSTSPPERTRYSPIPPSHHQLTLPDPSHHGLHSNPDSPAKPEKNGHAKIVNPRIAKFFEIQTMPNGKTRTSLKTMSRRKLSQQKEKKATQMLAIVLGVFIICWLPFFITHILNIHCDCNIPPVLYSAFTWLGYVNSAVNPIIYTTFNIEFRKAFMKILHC
Experimental: 1.) Bestimmung der Dopamin (D₂)-Rezeptorbindungsaffinitäten nach der modifizierten Methode von D.J. de Vries und P.M. Beart (Europ. J. Pharmacology 109, 417-419 (1985)):
Ratten werden durch Schlag betäubt, dekapitiert und das Ge hirn entnommen. Die Striata werden herauspräpariert und in 25 ml eiskaltem Puffer (50 mM TRIS-HCl, 1 mM EDTA, 5 mM MgCl₂, 1mM Ascorbinsäure, pH=7,20) homogenisiert. Das Homogenat wird 15 Minuten bei 0°C und 50000 × g zentrifugiert. Der Überstand wird verworfen. Das Pellet wird durch Resuspension und erneute Zentrifugation zweimal gewaschen und anschließend bei 37°C eine halbe Stunde vorinkubiert. Das Inkubat wird wie zuvor beschrieben zentrifugiert und der Überstand verworfen. Das Pellet wird in 60 ml Puffer resuspen diert, homogenisiert und dann mit Puffer 1:500 bezogen auf das Striatagewicht verdünnt.
Für den Inkubationsansatz werden 10 µl ³H-Spiroperidol-Lö-sung ([…]; Endkonzentration: 2,5 × 10⁻¹⁰ M), 970 µl Puffer sowie 20 µl Testsubstanzlösung (Endkonzentration: 10⁻¹¹-10⁻⁴ M) vorgelegt. Die unspezifische Bindung wird in Gegenwart von 1 µM Haloperidol bestimmt. Durch Zugabe von 1 ml Homogenatlösung zu dieser Vorlage wird der Assay gestartet. Die Inkubationszeit beträgt 60 Minuten bei Raumtemperatur. Nach Ablauf dieser Zeit wird das Inkubat über ein GF/B-Filter abgesaugt und mit 15 ml eiskaltem Puffer gewaschen. Das feuchte Filter wird mit Instagel® versetzt und über Nacht extrahiert. Anschließend wird die verbliebene Radioaktivität in einem Packard CA 2000 Szintillationscounter bei einer Zählausbeute von 50-55 % gezählt.
Mit Hilfe eines 2-Bindungsstellen-Iterationsprogrammes werden die IC₅₀-Werte ermittelt und daraus die Ki-Werte berechnet.

Dopamin-Autorezeptoren = assay: Inhibition of dopamine turnover (AMPT-induced fall of whole-brain dopamine) in mice; format: in vivo, Mäusen; details: 5 mg/kg s.c., AMPT 250 mg/kg i.p. at 15 min, whole brain dopamine at 4 h 15 min
Experimental: 2. Bestimmung der Dopaminturnoverhemmung:
Die Dopaminturnoverhemmung wurde an Mäusen gemessen. Bei Tieren, die mit α-Methyl-p-tyrosin (AMPT) (250 mg/kg i.p.) zum Zeitpunkt 15 Minuten des Experimentes behandelt werden, fällt die Dopaminkonzentration im Gesamthirn mit fortschreitender Versuchsdauer ab. Durch Substanzen, die an Dopamin-Autorezeptoren wirken, kann der Dopaminabfall (im Vergleich zu mit Kochsalzlösung behandelten Kontrolltieren) verhindert werden. Testsubstanzen werden zum Zeitpunkt 0 des Experiments subkutan appliziert (5 mg/kg s.c.). Zum Zeitpunkt 4 Stunden und 15 Minuten des Experiments werden die Tiere getötet und die Gehirne der Dopaminbestimmung mittels Hochdruckflüssigkeitschromatographie mit elektrochemischer Detektion zugeführt. Bestimmt wird die durch die Testsubstanz bewirkte prozentuale Hemmung des durch AMPT induzierten Dopaminabfalls: […]

Mäusen = assay: Toxicity in mice, oral dosing; format: in vivo; details: doses up to 500 mg/kg p.o.
From the text: Ferner sind die erfindungsgemäß hergestellten Verbindungen weitgehend untoxisch. So konnten z.

[2] = MPTP-treated rhesus monkeys, i.m.
[3] = rat striata, 3H-Spiroperidol 2,5 × 10⁻¹⁰ M, 60 min at room temperature, Ki calculated from IC50, read-out: Ki

C=CCN1CCC=C(c2csc(N)n2)C1 [Substanz B, 2-Amino-4-(1-allyl-1,2,3,6-tetrahydro-pyridin-5-yl)-thiazol]
Zahl der Laufimpulse/5 min [1]: 52 ± 9 Laufimpulse/5 min | Dauer (Wirkungsdauer) (MPTP-Affen; [2]): 2-5 Std. | minimal effective dose (MPTP-Affen; MPTP-treated rhesus monkeys, 2-3 animals per compound, i.m.): 0.05 mg/kg | Ki (Dopamin (D₂)-Rezeptor; [3]): 8 nM

CCCN1CC=C(c2csc(N)n2)CC1 [Substanz D, 2-Amino-4-(1-propyl-1,2,3,6-tetrahydro-pyridin-4-yl)-thiazol]
Zahl der Laufimpulse/5 min [1]: 80 ± 10 Laufimpulse/5 min | Hemmung des Dopaminabfalls (Dopamin-Autorezeptoren): 80% | Dauer (Wirkungsdauer) (MPTP-Affen; [2]): 2-3 Std. | minimal effective dose (MPTP-Affen): 0.03 mg/kg | Ki (Dopamin (D₂)-Rezeptor): 6 nM

C=CCN1CC=C(c2csc(N)n2)CC1 [Substanz C, 2-Amino-4-(1-allyl-1,2,3,6-tetrahydro-pyridin-4-yl)-thiazol]
Zahl der Laufimpulse/5 min [1]: 32 ± 7 Laufimpulse/5 min | Hemmung des Dopaminabfalls (Dopamin-Autorezeptoren): 47% | Todesfälle (Mäusen): keine Todesfälle | Dauer (Wirkungsdauer) (MPTP-Affen; [2]): 2-4 Std. | minimal effective dose (MPTP-Affen): 0.35 mg/kg | Ki (Dopamin (D₂)-Rezeptor): 22 nM

Nc1nc(C2=CCCNC2)cs1 [Substanz E, 2-Amino-4-(1,2,3,6-tetrahydro-pyridin-5-yl)thiazol-dihydrochlorid]
Ki (Dopamin (D₂)-Rezeptor; [3]): 3 nM

CCCN1CCC=C(c2csc(N)n2)C1 [Substanz A, 2-Amino-4-(1-propyl-1,2,3,6-tetrahydro-pyridin-5-yl)-thiazol]
Zahl der Laufimpulse/5 min [1]: 44 ± 4 Laufimpulse/5 min | Hemmung des Dopaminabfalls (Dopamin-Autorezeptoren): 35% | Ki (Dopamin (D₂)-Rezeptor; [3]): 36 nM

CCCN1CCC(c2csc(N)n2)CC1 [Substanz F, 2-Amino-4-(1-propyl-piperidin-4-yl)thiazol]
Zahl der Laufimpulse/5 min [1]: 65 ± 17 Laufimpulse/5 min | Hemmung des Dopaminabfalls (Dopamin-Autorezeptoren): 59% | Dauer (Wirkungsdauer) (MPTP-Affen; [2]): 2-3 Std. | minimal effective dose (MPTP-Affen): 0.2 mg/kg | Ki (Dopamin (D₂)-Rezeptor): 38 nM
